Patent US11707447B1

Molecular target: T1, 5-HT1A receptor (Homo sapiens, UniProt P08908)
T1 construct: host or cells: CHO-K1 (co-expressing Ga15)
T1 sequence (P08908 1-422): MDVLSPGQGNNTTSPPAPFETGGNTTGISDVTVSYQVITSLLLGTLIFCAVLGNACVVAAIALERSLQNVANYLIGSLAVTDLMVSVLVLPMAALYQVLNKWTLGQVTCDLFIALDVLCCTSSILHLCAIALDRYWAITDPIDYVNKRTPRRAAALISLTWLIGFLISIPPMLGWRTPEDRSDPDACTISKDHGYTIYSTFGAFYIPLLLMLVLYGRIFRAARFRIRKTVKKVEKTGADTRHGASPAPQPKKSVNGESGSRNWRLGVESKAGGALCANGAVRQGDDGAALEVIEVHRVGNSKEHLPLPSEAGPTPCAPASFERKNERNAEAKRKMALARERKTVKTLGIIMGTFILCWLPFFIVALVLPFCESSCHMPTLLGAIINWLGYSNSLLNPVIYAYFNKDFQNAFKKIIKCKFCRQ
Experiment: cAMP-Glo assay in +5-HT1A / -5-HT1A CHO-K1 cells
Format: cell-based

## CN(C)CCc1c[nH]c2cccc(OC(=O)SCc3ccccc3)c12 [E(VI)]
cAMP assay, forskolin-stimulated +5-HT1A cells
  EC50 at 5-HT1A: neither molecule engaged 5-HT1A with sufficient potency to calculate an EC50 value
forskolin-stimulated +5-HT1A vs -5-HT1A cells, increasing ligand
  cAMP level / 5-HT1A receptor modulation (in words): mild receptor modulation at higher ligand concentrations
